According to paper PMC5988656, “Phase I studies of AZD1208, a proviral integration Moloney virus kinase inhibitor in solid and haematological cancers” (British Journal of Cancer, 2018):

Tested on: patients with recurrent or refractory AML
Experiment: AML dose-escalation study: safety and tolerability (AEs, DLTs)
Format: in vivo, human
From the text: Conducted at three centres in the USA and one in Canada. Dose escalation followed a conventional 3 + 3 design. […] In the first cohort, dosing between the first and subsequent patients was staggered with a 7-day interval. Dose-escalation decisions were based on the safety and tolerability data from ≥3 evaluable patients (or six if one of the first three patients experienced a dose-limiting toxicity [DLT]).
AZD1208 could be escalated by up to 100% in subsequent cohorts until one DLT was observed, after which succeeding doses were escalated by up to 50%.
In the case of a DLT, the cohort was expanded to six patients. If a DLT occurred in ≥2 patients within a cohort, the dose was determined to be a non-tolerated dose (NTD) and dose escalation was stopped.
Grade 3 or 4 toxicities not attributable to the disease or disease-related processes under investigation, and occurring before the end of Cycle 1, were considered DLTs.
The NTD was identified as the dose at which ≥2 DLTs occurred in a given cohort.

N[C@@H]1CCCN(c2c(/C=C3\SC(=O)NC3=O)cccc2-c2ccccc2)C1 [AZD1208]
Hyperglycaemia (all-grade AE) (700 mg, n = 7): 1 (14.3) n (%)
Hypocalcaemia (all-grade AE) (700 mg, n = 7): 3 (42.9) n (%)
Hypokalaemia (all-grade AE) (700 mg, n = 7): 2 (28.6) n (%)
Hypomagnesaemia (all-grade AE) (700 mg, n = 7): 2 (28.6) n (%)
Hypophosphataemia (all-grade AE) (700 mg, n = 7): 1 (14.3) n (%)
Hypotension (all-grade AE) (700 mg, n = 7): 3 (42.9) n (%)
Maculopapular rash (all-grade AE) (700 mg, n = 7): 2 (28.6) n (%)
Nausea (all-grade AE) (700 mg, n = 7): 5 (71.4) n (%)
Oedema peripheral (all-grade AE) (700 mg, n = 7): 2 (28.6) n (%)
Patients with any AE (all-grade AE) (700 mg, n = 7): 7 (100.0) n (%)
Pneumonia (all-grade AE) (700 mg, n = 7): 0 n (%)
Pyrexia (all-grade AE) (700 mg, n = 7): 0 n (%)
Rash (all-grade AE) (700 mg, n = 7): 1 (14.3) n (%)
Renal failure acute (all-grade AE) (700 mg, n = 7): 1 (14.3) n (%)
Stomatitis (all-grade AE) (700 mg, n = 7): 0 n (%)
Vision blurred (all-grade AE) (700 mg, n = 7): 0 n (%)
Vomiting (all-grade AE) (700 mg, n = 7): 2 (28.6) n (%)
Patients in whom AZD1208 was discontinued as a result of SAEs and AEs (900 mg (acute coronary syndrome, rash)): 2 n
Tolerability (900 mg QD): not tolerated
Abdominal pain (all-grade AE) (900 mg, n = 9): 1 (11.1) n (%)
Asthenia (all-grade AE) (900 mg, n = 9): 2 (22.2) n (%)
Chills (all-grade AE) (900 mg, n = 9): 2 (22.2) n (%)
Cough (all-grade AE) (900 mg, n = 9): 2 (22.2) n (%)
DLT detail, action taken (900 mg, n = 9): Rash, drug permanently discontinued; maculopapular rash, drug permanently discontinued
Decreased appetite (all-grade AE) (900 mg, n = 9): 1 (11.1) n (%)
Dehydration (all-grade AE) (900 mg, n = 9): 4 (44.4) n (%)
Diarrhoea (all-grade AE) (900 mg, n = 9): 4 (44.4) n (%)
Dyspnoea (all-grade AE) (900 mg, n = 9): 2 (22.2) n (%)
Fatigue (all-grade AE) (900 mg, n = 9): 2 (22.2) n (%)
Febrile neutropenia (all-grade AE) (900 mg, n = 9): 3 (33.3) n (%)
Headache (all-grade AE) (900 mg, n = 9): 0 n (%)
Hyperglycaemia (all-grade AE) (900 mg, n = 9): 2 (22.2) n (%)
Hypocalcaemia (all-grade AE) (900 mg, n = 9): 1 (11.1) n (%)
Hypokalaemia (all-grade AE) (900 mg, n = 9): 2 (22.2) n (%)
Hypomagnesaemia (all-grade AE) (900 mg, n = 9): 1 (11.1) n (%)
Hypophosphataemia (all-grade AE) (900 mg, n = 9): 2 (22.2) n (%)
Hypotension (all-grade AE) (900 mg, n = 9): 2 (22.2) n (%)
Maculopapular rash (all-grade AE) (900 mg, n = 9): 1 (11.1) n (%)
Nausea (all-grade AE) (900 mg, n = 9): 2 (22.2) n (%)
Oedema peripheral (all-grade AE) (900 mg, n = 9): 2 (22.2) n (%)
Patients with any AE (all-grade AE) (900 mg, n = 9): 9 (100.0) n (%)
Pneumonia (all-grade AE) (900 mg, n = 9): 0 n (%)
Pyrexia (all-grade AE) (900 mg, n = 9): 3 (33.3) n (%)
Rash (all-grade AE) (900 mg, n = 9): 2 (22.2) n (%)
Renal failure acute (all-grade AE) (900 mg, n = 9): 0 n (%)
Stomatitis (all-grade AE) (900 mg, n = 9): 0 n (%)
Vision blurred (all-grade AE) (900 mg, n = 9): 0 n (%)
Vomiting (all-grade AE) (900 mg, n = 9): 1 (11.1) n (%)
Abdominal pain (all-grade AE) (Total N = 32): 6 (18.8) n (%)
Asthenia (all-grade AE) (Total N = 32): 5 (15.6) n (%)
Chills (all-grade AE) (Total N = 32): 4 (12.5) n (%)
Cough (all-grade AE) (Total N = 32): 8 (25.0) n (%)
Decreased appetite (all-grade AE) (Total N = 32): 4 (12.5) n (%)
Dehydration (all-grade AE) (Total N = 32): 4 (12.5) n (%)
Diarrhoea (all-grade AE) (Total N = 32): 14 (43.8) n (%)
Dyspnoea (all-grade AE) (Total N = 32): 7 (21.9) n (%)
Fatigue (all-grade AE) (Total N = 32): 10 (31.3) n (%)
Febrile neutropenia (all-grade AE) (Total N = 32): 9 (28.1) n (%)
Headache (all-grade AE) (Total N = 32): 4 (12.5) n (%)
Hyperglycaemia (all-grade AE) (Total N = 32): 5 (15.6) n (%)
Hypocalcaemia (all-grade AE) (Total N = 32): 7 (21.9) n (%)
Hypokalaemia (all-grade AE) (Total N = 32): 7 (21.9) n (%)
Hypomagnesaemia (all-grade AE) (Total N = 32): 7 (21.9) n (%)
Hypophosphataemia (all-grade AE) (Total N = 32): 6 (18.8) n (%)
Hypotension (all-grade AE) (Total N = 32): 10 (31.3) n (%)
Maculopapular rash (all-grade AE) (Total N = 32): 4 (12.5) n (%)
Nausea (all-grade AE) (Total N = 32): 15 (46.9) n (%)
Oedema peripheral (all-grade AE) (Total N = 32): 9 (28.1) n (%)
Patients with any AE (all-grade AE) (Total N = 32): 31 (96.9) n (%)
Pneumonia (all-grade AE) (Total N = 32): 6 (18.8) n (%)
Pyrexia (all-grade AE) (Total N = 32): 4 (12.5) n (%)
Rash (all-grade AE) (Total N = 32): 4 (12.5) n (%)
Renal failure acute (all-grade AE) (Total N = 32): 4 (12.5) n (%)
Stomatitis (all-grade AE) (Total N = 32): 5 (15.6) n (%)
Vision blurred (all-grade AE) (Total N = 32): 4 (12.5) n (%)
Vomiting (all-grade AE) (Total N = 32): 10 (31.3) n (%)
Deaths during the study (all attributed to disease progression): nine
ECG abnormalities (all doses): No clinically significant ECG abnormalities
Patients with DLTs (all doses): five
AEs judged possibly related to AZD1208, patients (all doses, 32 patients): 68.8%
AZD1208 discontinued as a result of SAEs and AEs, patients (all doses, 32 patients): 25%
Diarrhoea possibly related to AZD1208, patients (all doses, 32 patients): 21.9%
Diarrhoea, patients (all doses, 32 patients): 43.8%
Fatigue possibly related to AZD1208, patients (all doses, 32 patients): 18.8%
Gastrointestinal disorders AEs, patients (all doses, 32 patients): 87.5%
Grade ≥3 febrile neutropenia, patients (all doses, 32 patients): 28.1%
Grade ≥3 hypotension, patients (all doses, 32 patients): 18.8%
Grade ≥3 pneumonia, patients (all doses, 32 patients): 15.6%
Nausea possibly related to AZD1208, patients (all doses, 32 patients): 37.5%
Nausea, patients (all doses, 32 patients): 46.9%
Patients who experienced an AE (all doses, 32 patients): 96.9%
Patients with a grade ≥3 AE (all doses, 32 patients): 24 n
SAE abdominal pain, patients (all doses, 32 patients): 6.3%
SAE back pain, patients (all doses, 32 patients): 6.3%
SAE febrile neutropenia, patients (all doses, 32 patients): 25.0%
SAE hypotension, patients (all doses, 32 patients): 6.3%
SAE maculopapular rash, patients (all doses, 32 patients): 6.3%
Serious AEs (SAEs), patients (all doses, 32 patients): 71.9%
Treatment-related SAEs, patients (all doses, 32 patients): 15.6%
Vomiting possibly related to AZD1208, patients (all doses, 32 patients): 18.8%
Time of DLT occurrence after the start of treatment (five patients with DLTs): 1 to 10 days
Doses generally tolerated (heavily pretreated AML, QD oral): up to 700 mg
